Assay results published in US7566733B2, “Benzimidazole derivatives useful as selective androgen receptor modulators (sarms)” (priority 2004, dated 2009).

Tested on: castrated male Sprague Dawley rats
Assay: Ventral Prostate and Seminal Vesicle Weight In Vivo Assay; note: key: active: the non weight adjusted prostate weight was ≦40 mg or the % Inhibition prostate weight, body weight adjusted was ≧40%@2 mg/day dosage; inactive: did not meet the specified criteria defined above
Details: inhibition of testosterone-enhanced prostate weight; immature castrated rats, once daily for five days, usually orally 40 mg/kg, with testosterone propionate 2 mg/kg s.c.
Experimental: Ventral Prostate and Seminal Vesicle Weight In Vivo Assay; note: key: active: the non weight adjusted prostate weight was ≦40 mg or the % Inhibition prostate weight, body weight adjusted was ≧40%@2 mg/day dosage; inactive: did not meet the specified criteria defined above
Immature (approximately 50 g) castrated male Sprague Dawley rats (Charles River) were treated once daily for five days with test compound (usually given orally at 40 mg/kg in a volume of 0.3 mL, in 30% cyclodextrin or 0.5% methylcellulose vehicle) and with testosterone propionate (given subcutaneously by injection at the nape of the neck at 2 mg/kg, in a volume of 0.1 mL in sesame oil). On the sixth day, the rats were euthanized by asphyxiation in carbon dioxide. Ventral prosatates and seminal vesicles were removed and their wet weights determined. Test compound activity was determined as the percent inhibition of testosterone-enhanced tissue weights, with a vehicle-treated control group set to zero percent and a testosterone alone-treated control group set to 100%.
Representative compounds of the present invention were tested according to the procedure described, with results as listed in Table 7 below. A test compound is listed as “active” if the non weight adjusted prostate weight was ≦40 mg or the % Inhibition prostate weight, body weight adjusted was ≧40%@2 mg/day dosage. ID50's, if determined, of ≦15 mg/day also indicated an “active” compound.

Q: How did the Activity turn out when CCOC(=O)Cn1c(CC(F)(F)F)nc2cc(Cl)c(Cl)cc21 [Compound 81, [5,6-Dichloro-2-(2,2,2-trifluoro-ethyl)-benzoimidazol-1-yl]-acetic Acid Ethyl Ester] was run?
A: Its Activity is “inactive”.

Q: How did the Activity turn out when O[C@H](c1nc2cc(Cl)c(Cl)cc2[nH]1)C(F)(F)F [Compound 82, (−)-1-(5,6-DiChloro-1H-benzoimidazol-2-yl-)2,2,2-trifluoro-ethanol] was run?
A: Its Activity is “active”.

Q: How did the Activity turn out when O[C@@H](c1nc2cc(Cl)c(Cl)cc2[nH]1)C(F)(F)F [Compound 83, (+)-1-(5,6-DiChloro-1H-benzoimidazol-2-yl-)2,2,2-trifluoro-ethanol] was run?
A: The Activity was “active”.

Q: How did the Activity turn out when O=C(Cn1c(CC(F)(F)F)nc2cc(Cl)c(Cl)cc21)c1cc2ccccc2o1 [Compound 84, 1-Benzofuran-2-yl-2-[5,6-dichloro-2-(2,2,2-trifluoro-ethyl)-benzoimidazol-1-yl]-ethanone] was run?
A: Its Activity is “inactive”.

Q: For O=C(Cn1c(CC(F)(F)F)nc2cc(Cl)c(Cl)cc21)c1ccc(Cl)cc1 [Compound 85, 1-(4-Chloro-phenyl)-2-[5,6-dichloro-2-(2,2,2-trifluoro-ethyl)-benzoimidazol-1-yl]-ethanone], which Activity is on record?
A: Its Activity is “inactive”.

Q: COc1cccc(C(=O)Cn2c(CC(F)(F)F)nc3cc(Cl)c(Cl)cc32)c1 [Compound 86, 2-[5,6-Dichloro-2-(2,2,2-trifluoro-ethyl)-benzoimidazol-1-yl]-1-(3-methoxy-phenyl)-ethanone] was tested. Which Activity did it give?
A: The Activity was “inactive”.

Q: O=C(Cn1c(CC(F)(F)F)nc2cc(Cl)c(Cl)cc21)c1cccnc1 [Compound 87, 2-[5,6-Dichloro-2-(2,2,2-trifluoro-ethyl)-benzoimidazol-1-yl]-1-pyridin-3-yl-ethanone] was tested. Which Activity did it give?
A: Its Activity is “inactive”.

Q: How did the Activity turn out when O=C(Cn1c(CC(F)(F)F)nc2cc(Cl)c(Cl)cc21)c1ccc(-c2ccccn2)s1 [Compound 88, 2-[5,6-Dichloro-2-(2,2,2-trifluoro-ethyl)-benzoimidazol-1-yl]-1-(5-pyridin-2-yl-thiophen-2-yl)-ethanone] was run?
A: The Activity was “inactive”.

Q: Which Activity does the source give for Fc1ccc(Cn2c(CC(F)(F)F)nc3cc(Cl)c(Cl)cc32)cc1 [Compound 89, 5,6-Dichloro-1-(4-fluoro-benzyl)-2-(2,2,2-trifluoro-ethyl)-1H-benzoimidazole] here?
A: Its Activity is “active”.

Q: With COc1ccccc1C(=O)Cn1c(CC(F)(F)F)nc2cc(Cl)c(Cl)cc21 [Compound 90, 2-[5,6-Dichloro-2-(2,2,2-trifluoro-ethyl)-benzoimidazol-1-yl]-1-(2-methoxy-phenyl)-ethanone] as the molecule, how does the Activity read?
A: The Activity was “inactive”.

Q: O=C(Cn1c(CC(F)(F)F)nc2cc(Cl)c(Cl)cc21)c1cccs1 [Compound 91, 2-[5,6-Dichloro-2-(2,2,2-trifluoro-ethyl)-benzoimidazol-1-yl]-1-thiophen-2-yl-ethanone] was tested. Which Activity did it give?
A: Its Activity is “active”.

Q: Which Activity does the source give for O=C(Cn1c(CC(F)(F)F)nc2cc(Cl)c(Cl)cc21)c1ccccn1 [Compound 92, 2-[5,6-Dichloro-2-(2,2,2-trifluoro-ethyl)-benzoimidazol-1-yl]-1-pyridin-2-yl-ethanone] here?
A: The Activity was “active”.

Q: For FC(F)(F)Cc1nc2cc(Cl)c(Cl)cc2n1Cc1cccc(C(F)(F)F)c1 [Compound 93, 5,6-Dichloro-2-(2,2,2-trifluoro-ethyl)-1-(3-trifluoromethyl-benzyl)-1H-benzoimidazole], which Activity is on record?
A: Its Activity is “active”.

Q: Which Activity does the source give for Fc1c(F)c(F)c(Cn2c(CC(F)(F)F)nc3cc(Cl)c(Cl)cc32)c(F)c1F [Compound 94, 5,6-Dichloro-1-pentafluorophenylmethyl-2-(2,2,2-trifluoro-ethyl)-1H-benzoimidazole] here?
A: The Activity was “inactive”.

Q: Which Activity does the source give for Cc1cccc(Cn2c(CC(F)(F)F)nc3cc(Cl)c(Cl)cc32)c1 [Compound 95, 5,6-Dichloro-1-(3-methyl-benzyl)-2-(2,2,2-trifluoro-ethyl)-1H-benzoimidazole] here?
A: The Activity was “inactive”.

Q: For O=C(Cn1c(CC(F)(F)F)nc2cc(Cl)c(Cl)cc21)c1cccc([N+](=O)[O-])c1 [Compound 96, 2-[5,6-Dichloro-2-(2,2,2-trifluoro-ethyl)-benzoimidazol-1-yl]-1-(3-nitro-phenyl)-ethanone], which Activity is on record?
A: Its Activity is “inactive”.

Q: How did the Activity turn out when FC(F)(F)Cc1nc2cc(Cl)c(Cl)cc2n1Cc1ccccc1 [Compound 97, 1-Benzyl-5,6-dichloro-2-(2,2,2-trifluoro-ethyl)-1H-benzoimidazole] was run?
A: Its Activity is “active”.

Q: How did the Activity turn out when OCCn1c(CC(F)(F)F)nc2cc(Cl)c(Cl)cc21 [Compound 98, 2-[5,6-Dichloro-2-(2,2,2-trifluoro-ethyl)-benzoimidazol-1-yl]-ethanol] was run?
A: Its Activity is “active”.

Q: FC(F)(F)Cc1nc2cc(Cl)c(Cl)cc2n1Cc1cccnc1 [Compound 99, 5,6-Dichloro-1-pyridin-3-ylmethyl-2-(2,2,2-trifluoro-ethyl)-1H-benzoimidazole] was tested. Which Activity did it give?
A: The Activity was “active”.

Q: With FC(F)(F)Cc1nc2cc(Cl)c(Cl)cc2n1Cc1ccc(C(F)(F)F)cc1 [Compound 100, 5,6-Dichloro-2-(2,2,2-trifluoro-ethyl)-1-(4-trifluoromethyl-benzyl)-1H-benzoimidazole] as the molecule, how does the Activity read?
A: The Activity was “active”.

Q: With FC(F)(F)Cc1nc2cc(Cl)c(Cl)cc2n1Cc1ccc(OC(F)(F)F)cc1 [Compound 101, 5,6-Dichloro-2-(2,2,2-trifluoro-ethyl)-1-(4-trifluoromethoxy-benzyl)-1H-benzoimidazole] as the molecule, how does the Activity read?
A: Its Activity is “inactive”.

Q: How did the Activity turn out when FC(F)(F)Cc1nc2cc(Cl)c(Cl)cc2n1Cc1ccccn1 [Compound 102, 5,6-Dichloro-1-pyridin-2-ylmethyl-2-(2,2,2-trifluoro-ethyl)-1H-benzoimidazole] was run?
A: Its Activity is “active”.

Q: How did the Activity turn out when O=C(Cn1c(CC(F)(F)F)nc2cc(Cl)c(Cl)cc21)c1ccc2c(c1)OCCO2 [Compound 104, 2-[5,6-Dichloro-2-(2,2,2-trifluoro-ethyl)-benzoimidazol-1-yl]-1-(2,3-dihydro-benzo[1,4]dioxin-6-yl)-ethanone] was run?
A: Its Activity is “inactive”.

Q: O=[N+]([O-])c1ccc(Cn2c(CC(F)(F)F)nc3cc(Cl)c(Cl)cc32)cc1 [Compound 105, 5,6-Dichloro-1-(4-nitro-benzyl)-2-(2,2,2-trifluoro-ethyl)-1H-benzoimidazole] was tested. Which Activity did it give?
A: Its Activity is “active”.

Q: CO[C@@](C(=O)OC(c1nc2cc(Cl)c(Cl)cc2[nH]1)C(F)(F)F)(c1ccccc1)C(F)(F)F (stereo partly drawn) [Compound 106] was tested. Which Activity did it give?
A: The Activity was “active”.

Q: FC(F)(F)Cc1nc2cc(Cl)c(Cl)cc2n1Cc1ccncc1 [Compound 108, 5,6-Dichloro-1-pyridin-4-ylmethyl-2-(2,2,2-trifluoro-ethyl)-1H-benzoimidazole] was tested. Which Activity did it give?
A: The Activity was “active”.

Q: How did the Activity turn out when N#Cc1cccc(Cn2c(CC(F)(F)F)nc3cc(Cl)c(Cl)cc32)c1 [Compound 109, 3-[5,6-Dichloro-2-(2,2,2-trifluoro-ethyl)-benzoimidazol-1-ylmethyl]-benzonitrile] was run?
A: Its Activity is “active”.

Q: N#Cc1ccccc1Cn1c(CC(F)(F)F)nc2cc(Cl)c(Cl)cc21 [Compound 110, 2-[5,6-Dichloro-2-(2,2,2-trifluoro-ethyl)-benzoimidazol-1-ylmethyl]-benzonitrile] was tested. Which Activity did it give?
A: Its Activity is “active”.

Q: For Cc1cc2nc(C(O)C(F)(F)F)[nH]c2cc1C (stereo not drawn) [Compound 111, 1-(5,6-Dimethyl-1H-benzoimidazol-2-yl-)2,2,2-trifluoro-ethanol], which Activity is on record?
A: The Activity was “inactive”.

Q: How did the Activity turn out when OC(c1nc2cc(Cl)c(F)cc2[nH]1)C(F)(F)F (stereo not drawn) [Compound 112, 1-(5-Chloro-6-fluoro-1H-benzoimidazol-2-yl-)2,2,2-trifluoro-ethanol] was run?
A: Its Activity is “active”.

Q: How did the Activity turn out when OC(c1nc2cc(F)c(F)cc2[nH]1)C(F)(F)F (stereo not drawn) [Compound 113, 1-(5,6-Difluoro-1H-benzoimidazol-2-yl-)2,2,2-trifluoro-ethanol] was run?
A: The Activity was “inactive”.

Q: With O=C(c1nc2cc(Cl)c(Cl)cc2[nH]1)C(F)(F)F [Compound 114, 1-(5,6-DiChloro-1H-benzoimidazol-2-yl)-2,2,2-trifluoro-ethanone] as the molecule, how does the Activity read?
A: Its Activity is “active”.

Q: How did the Activity turn out when Fc1ccc(OCCn2c(CC(F)(F)F)nc3cc(Cl)c(Cl)cc32)cc1 [Compound 115, 5,6-Dichloro-1-[2-(4-fluoro-phenoxy)-ethyl]-2-(2,2,2-trifluoro-ethyl)-1H-benzoimidazole] was run?
A: Its Activity is “active”.

Q: How did the Activity turn out when N#Cc1ccc(Cn2c(CC(F)(F)F)nc3cc(Cl)c(Cl)cc32)cc1 [Compound 116, 4-[5,6-Dichloro-2-(2,2,2-trifluoro-ethyl)-benzoimidazol-1-ylmethyl]-benzonitrile] was run?
A: Its Activity is “active”.

Q: How did the Activity turn out when Fc1ccccc1Cn1c(CC(F)(F)F)nc2cc(Cl)c(Cl)cc21 [Compound 117, 5,6-Dichloro-1-(2-fluoro-benzyl)-2-(2,2,2-trifluoro-ethyl)-1H-benzoimidazole] was run?
A: Its Activity is “active”.

Q: Which Activity does the source give for Fc1cccc(Cn2c(CC(F)(F)F)nc3cc(Cl)c(Cl)cc32)c1 [Compound 119, 5,6-Dichloro-1-(3-fluoro-benzyl)-2-(2,2,2-trifluoro-ethyl)-1H-benzoimidazole] here?
A: The Activity was “active”.

Q: For FC(F)(F)Cc1nc2cc(Cl)c(Cl)cc2n1Cc1cccc(Cl)c1 [Compound 120, 5,6-Dichloro-1-(3-chloro-benzyl)-2-(2,2,2-trifluoro-ethyl)-1H-benzoimidazole], which Activity is on record?
A: Its Activity is “active”.

Q: For FC(F)(F)Cc1nc2cc(Cl)c(Cl)cc2n1Cc1ccc(Cl)cc1 [Compound 121, 5,6-Dichloro-1-(4-chloro-benzyl)-2-(2,2,2-trifluoro-ethyl)-1H-benzoimidazole], which Activity is on record?
A: The Activity was “active”.

Q: Fc1cccc(OCCn2c(CC(F)(F)F)nc3cc(Cl)c(Cl)cc32)c1 [Compound 123, 5,6-Dichloro-1-[2-(3-fluoro-phenoxy)-ethyl]-2-(2,2,2-trifluoro-ethyl)-1H-benzoimidazole] was tested. Which Activity did it give?
A: The Activity was “inactive”.
